According to patent publication US7915297B2, “Isoxazole derivatives and use thereof” (SK Holdings Co., Ltd., priority 2005, dated 2011):

Experiments:
[1] = tested on: ST-2, a murine bone marrow stromal T cell; assay: Differentiation of ST2 cell line into osteoblasts, alkaline phosphatase activity; assay type: cell-based; conditions: Mus musculus, 96 h; ST-2 cells, 11 μM compound, 4 days; control treated only with ascorbic acid and β-glycerolphosphate = 100; read-out: ALP Activity (% Control)
Protocol: The derivatives synthesized according to the present invention were assayed for their ability to differentiate stem cells into osteoblasts. In this regard, ST-2, a murine bone marrow stromal T cell, was used to measure the activity of bone-specific alkaline phosphatase, a marker of early-stage osteoblast differentiation. In detail, the cell line was cultured in an MEM supplemented with penicillin-streptomycin (100 Units/mL) and heat-inactivated 5% fetal bovine serum under standard culture conditions (5% CO2, 37° C., 100% relative humidity). […] The suspension was diluted with the same medium to adjust the cell count to 5,000˜10,000 cells per well, and was moved in a 96-well microtiter, subsequently. After being incubated for 24 hrs, the cells were treated in a medium containing 50 μg/ml of ascorbic acid and 5 mM of β-glycerolphosphate with various concentrations of the isoxazole derivatives synthesized in Preparation Examples. During incubation for one to nine days, the Alkaline phosphatase activity was analyzed using a […] Assay kit (Promega, U.S.A.) according to the protocol described in the manual provided by the manufacturer. The activities were measured in cells which had been incubated at 11 μM of each of the compounds for 4 days. Data on the activities of the isoxazole derivatives synthesized are given in Tables 44 to 47 and are expressed as percentages of ALP relative to that measured in the control, which was treated only with ascorbic acid and β-glycerolphosphate. ALP activities according to the concentrations of Derivative (1) are depicted in FIG. 5.

[2] = tested on: Wnt/β-catenin signaling (β-catenin activity) in SW480 cell line; assay: Cell-based Wnt agonist screening, TCF luciferase reporter, SW480 (TCF-FL); set-up: species or system human; conditions: Homo sapiens, % of LiCl (20 mM), 24 h, read-out: Max. Activity (%); for Emax at 120 µM: Con. 120 μM; for Emax at 30 µM: Con. 30 μM; for Emax at 1 µM: Con. 1 μM; for Emax at 10 µM: Con. 10 μM; for Emax at 60 µM: Con. 60 μM
Method in brief: (§1)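 HEK293 and SW480 lines stably carried a 5X TCF firefly luciferase reporter under G418 selection. Cells (8,000–15,000/well, RPMI 1640 with 5% FBS) were grown 24 h, then treated with compound for 24 h. Luciferase activity was expressed as percent of the 20 mM LiCl positive control.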

[3] = tested on: Wnt/β-catenin signaling (β-catenin activity) in HEK293 cell line; assay: Cell-based Wnt agonist screening, TCF luciferase reporter, HEK293 (TCF-FL); set-up: species or system human; conditions: Homo sapiens, HEK293, 24 h, % of LiCl (20 mM), 24 h, read-out: Max. Activity (%); for Emax at 30 µM: Conc. 30 μM; for Emax at 120 µM: Conc. 120 μM
Method in brief: as §1

Compound O=C(NCCNc1ccccn1)c1cc(-c2ccco2)on1 [Derivative (204), 5-furan-2-yl-isoxazole-3-carboxylic acid [2-(pyridin-2-ylamino)-ethyl]-amide] has an activity at 11 µM [1] of 150% and an Emax at 120 µM [2] of 369%.

With O=C(NCCN1CCN(c2ccccn2)CC1)c1cc(-c2ccco2)on1 [Derivative (182), 5-furan-2-yl-isoxazole-3-carboxylic acid [2-(4-pyridin-2-yl-piperazin-1-yl)-ethyl]-amide] the activity at 11 µM [1] was 887% and the Emax at 30 µM [2] was 413%.

With O=C(NCCn1ccnc1)c1cc(-c2ccsc2)on1 [Derivative (157), 5-thiophen-3-yl-isoxazole-3-carboxylic acid (2-imidazol-1-yl-ethyl)-amide] the activity at 11 µM [1] was 809% and the Emax at 30 µM [2] was 871%.

Work on CC(C)c1ccc(NCCNC(=O)c2cc(-c3ccco3)on2)cc1 [Derivative (199), 5-furan-2-yl-isoxazole-3-carboxylic acid [2-(4-isopropyl-phenylamino)-ethyl]-amide] yielded an activity at 11 µM [1] of 63% and an Emax at 30 µM [2] of 45%.

O=C(NCCCn1cncn1)c1cc(C2CCCCC2)on1 [Derivative (165), 5-cyclohexyl-3-isoxazole-3-carboxylic acid (3-[1,2,4]-triazol-1-yl-propyl)-amide] gave an activity at 11 µM [1] of 92% and an Emax at 30 µM [2] of 45%.

Compound Cc1ccc(N2CCN(CCNC(=O)c3cc(-c4ccco4)on3)CC2)cc1 [Derivative (183), 5-furan-2-yl-isoxazole-3-carboxylic acid {2-[4-(4-methylphenyl)-piperazin-1-yl]-ethyl}-amide] has an activity at 11 µM [1] of 127% and an Emax at 120 µM [2] of 114%.

Work on O=C(NCCNC(=O)c1cc(-c2cccs2)on1)Nc1ccccc1 [Derivative (211), 5-thiophen-2-yl-isoxazole-3-carboxylic acid [2-(3-phenyl-urido)-ethyl]-amide] yielded an activity at 11 µM [1] of 204% and an Emax at 30 µM [2] of 158%.

With O=C(NCCCn1ccnc1)c1cc(-c2ccc[nH]2)on1 [Derivative (160), 5-(1H-pyrrol-2-yl)-isoxazole-3-carboxylic acid (3-imidazol-1-yl-propyl)-amide] the activity at 11 µM [1] was 158% and the Emax at 120 µM [2] was 146%.

O=C(NCCNc1ccc(Cl)cc1)c1cc(-c2ccco2)on1 [Derivative (198), 5-furan-2-yl-isoxazole-3-carboxylic acid [2-(4-chloro-phenylamino)-ethyl]-amide] was tested, and the activity at 11 µM [1] was 100% and the Emax at 30 µM [2] was 50%.

COc1ccc(N2CCN(CCNC(=O)c3cc(-c4ccco4)on3)CC2)cc1 [Derivative (181), 5-furan-2-yl-isoxazole-3-carboxylic acid {2-[4-(4-methoxyphenyl)-piperazin-1-yl]-ethyl}-amide] was tested, and the activity at 11 µM [1] was 681% and the Emax at 1 µM [2] was 73%.

For O=C(NCCS(=O)(=O)Nc1ccccc1)c1cc(-c2cccs2)on1 [Derivative (220), 5-thiophen-2-yl-isoxazole-3-carboxylic acid (2-phenylsulfamoyl-ethyl)-amide], the activity at 11 µM [1] was 187% and the Emax at 120 µM [2] was 182%.

Cc1nccn1CCCNC(=O)c1cc(-c2ccco2)on1 [Derivative (44), 5-furan-2-yl-isoxazole-3-carboxylic acid [3-(2-methyl-imidazol-1-yl)-propyl]-amide] showed an activity at 11 µM [1] of 997% and an Emax at 120 µM [2] of 657%.

O=C(NCCN1CCN(c2ccc([N+](=O)[O-])cc2)CC1)c1cc(-c2ccco2)on1 [Derivative (180), 5-furan-2-yl-isoxazole-3-carboxylic acid {2-[4-(4-nitrophenyl)-piperazin-1-yl]-ethyl}-amide] was tested, and the activity at 11 µM [1] was 181% and the Emax at 120 µM [2] was 45%.

With COc1ccccc1N1CCN(CCNC(=O)c2cc(-c3ccco3)on2)CC1 [Derivative (193), 5-furan-2-yl-isoxazole-3-carboxylic acid {2-[4-(2-methoxyphenyl)-piperazin-1-yl]-ethyl}-amide] the activity at 11 µM [1] was 173% and the Emax at 30 µM [2] was 382%.

O=C(CNC(=O)c1cc(-c2ccco2)on1)c1ccccc1 [Derivative (205), 5-furan-2-yl-isoxazole-3-carboxylic acid (2-oxo-2-phenyl-ethyl)-amide] gave an activity at 11 µM [1] of 58% and an Emax at 10 µM [2] of 59%.

O=C(NCCn1cncn1)c1cc(-c2cc3ccccc3o2)on1 [Derivative (171), 5-benzofuran-2-yl-isoxazole-3-carboxylic acid (2-[1,2,4]triazol-1-yl-ethyl)-amide] was tested, and the activity at 11 µM [1] was 74% and the Emax at 120 µM [2] was 43%.

With O=C(NCCCn1cnnn1)c1cc(-c2ccco2)on1 [Derivative (52), 5-furan-2-yl-isoxazole-3-carboxylic acid (3-tetrazol-1-yl-propyl)-amide] the activity at 11 µM [1] was 438%.

With O=C(NCCNC(=O)c1cc(-c2cccs2)on1)c1ccccc1 [Derivative (210), 5-thiophen-2-yl-isoxazole-3-carboxylic acid (2-benzoylamino-ethyl)-amide] the activity at 11 µM [1] was 202% and the Emax at 1 µM [2] was 475%.

CN(CCNC(=O)c1cc(-c2ccco2)on1)c1ccccc1 [Derivative (202), 5-furan-2-yl-isoxazole-3-carboxylic acid [2-(methyl-phenyl-amino)-ethyl]-amide] was tested, and the activity at 11 µM [1] was 109% and the Emax at 30 µM [2] was 185%.

In the case of O=C(NCCCn1cncn1)c1cc(N2CCOCC2)on1 [Derivative (162), 5-morpholin-4-yl-isoxazole-3-carboxylic acid (3-[1,2,4]-triazol-1-yl-propyl)-amide], the activity at 11 µM [1] is reported as 60% and the Emax at 10 µM [2] is reported as 30%.

In the case of O=C(NCCNCc1ccccc1)c1cc(-c2ccco2)on1 [Derivative (197), 5-furan-2-yl-isoxazole-3-carboxylic acid (2-benzylamino-ethyl)-amide], the activity at 11 µM [1] is reported as 118% and the Emax at 120 µM [2] is reported as 84%.

Work on O=C(NCCN1CCN(c2ccc(F)cc2)CC1)c1cc(-c2ccco2)on1 [Derivative (179), 5-furan-2-yl-isoxazole-3-carboxylic acid {2-[4-(4-fluorophenyl)-piperazin-1-yl]-ethyl}-amide] yielded an activity at 11 µM [1] of 356% and an Emax at 10 µM [2] of 73%.

Cn1cccc1-c1cc(C(=O)NCCCn2cncn2)no1 [Derivative (150)] was tested, and the activity at 11 µM [1] was 328% and the Emax at 30 µM [2] was 78%.

In the case of Nc1ccc(CCNC(=O)c2cc(-c3ccco3)on2)cc1 [Derivative (26), 5-furan-2-yl-isoxazole-3-carboxylic acid [2-(4-amino-phenyl)-ethyl]-amide], the Emax at 30 µM [3] is reported as < 20% and the Emax at 30 µM [2] is reported as < 20%.

Work on O=C(NCCn1ccnc1)c1cc(-c2ccco2)on1 [Derivative (33), 5-furan-2-yl-isoxazole-3-carboxylic acid (2-imidazol-1-yl-ethyl)-amide] yielded an Emax at 15 µM ([3]; Conc. 15 μM) of 37% and an Emax at 120 µM [2] of 580%.

With O=C(NCCCn1cnc(Br)c1)c1cc(-c2ccco2)on1 [Derivative (60), 5-furan-2-yl-isoxazole-3-carboxylic acid [3-(4-bromo-imidazol-1-yl)-propyl]-amide] the Emax at 30 µM [3] was < 20% and the Emax at 30 µM [2] was 196%.

Compound O=C(NCCCn1ccnc1)c1cc(-c2ccc(O)cc2)on1 [Derivative (107), 5-(4-hydroxy-phenyl)-isoxazole-3-carboxylic acid (3-imidazol-1-yl-propyl)-amide] has an Emax at 30 µM [3] of 28%, an Emax at 60 µM ([3]; Conc. 60 μM) of 584% and an Emax at 60 µM [2] of 584%.

For O=C(NCCc1cccc(F)c1)c1cc(-c2ccco2)on1 [Derivative (17), 5-furan-2-yl-isoxazole-3-carboxylic acid [2-(3-fluoro-phenyl)-ethyl]-amide], the Emax at 30 µM [3] was < 20% and the Emax at 60 µM [2] was 200%.

With Cc1ccccc1-c1cc(C(=O)NCCCn2ccnc2)no1 [Derivative (78), 5-o-tolyl-isoxazole-3-carboxylic acid (3-imidazol-1-yl-propyl)-amide] the Emax at 120 µM [3] was 42% and the Emax at 120 µM [2] was 42%.

Cc1ccc(-c2cc(C(=O)NCCCn3ccnc3)no2)cc1 [Derivative (80), 5-p-tolyl-isoxazole-3-carboxylic acid (3-imidazol-1-yl-propyl)-amide] was tested, and the Emax at 120 µM [3] was 58% and the Emax at 120 µM [2] was 58%.
